Experimental findings from patent EP4818177A1, “TRICYCLIC DERIVATIVE INHIBITOR, AND PREPARATION METHOD AND USE THEREFOR” (Shanghai Hansoh Biomedical Co., Ltd., priority 2023, dated 2025) are described below.

The target of one series is T1, PRMT5/MEP50-MTA protein complex (Homo sapiens, UniProt O14744).
T1 construct: purchased Viva Biotech
T1 sequence (O14744 whole entry): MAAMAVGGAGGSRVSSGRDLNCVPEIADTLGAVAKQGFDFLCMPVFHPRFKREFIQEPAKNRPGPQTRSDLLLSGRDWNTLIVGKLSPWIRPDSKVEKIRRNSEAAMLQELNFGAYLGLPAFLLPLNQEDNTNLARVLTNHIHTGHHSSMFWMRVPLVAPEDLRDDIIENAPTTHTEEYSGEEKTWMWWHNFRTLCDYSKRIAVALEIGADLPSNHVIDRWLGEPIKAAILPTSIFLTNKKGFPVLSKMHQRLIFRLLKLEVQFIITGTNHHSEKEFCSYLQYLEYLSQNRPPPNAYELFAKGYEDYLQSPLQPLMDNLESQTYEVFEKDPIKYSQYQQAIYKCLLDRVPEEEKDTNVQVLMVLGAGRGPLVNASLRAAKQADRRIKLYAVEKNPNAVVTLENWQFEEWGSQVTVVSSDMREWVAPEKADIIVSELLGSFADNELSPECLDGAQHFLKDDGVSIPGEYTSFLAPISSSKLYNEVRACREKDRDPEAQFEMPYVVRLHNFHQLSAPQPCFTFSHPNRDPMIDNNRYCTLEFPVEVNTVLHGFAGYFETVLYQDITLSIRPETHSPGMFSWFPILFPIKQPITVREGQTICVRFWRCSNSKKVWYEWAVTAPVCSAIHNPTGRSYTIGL
T1 sequence (Q9BQA1 whole entry partner): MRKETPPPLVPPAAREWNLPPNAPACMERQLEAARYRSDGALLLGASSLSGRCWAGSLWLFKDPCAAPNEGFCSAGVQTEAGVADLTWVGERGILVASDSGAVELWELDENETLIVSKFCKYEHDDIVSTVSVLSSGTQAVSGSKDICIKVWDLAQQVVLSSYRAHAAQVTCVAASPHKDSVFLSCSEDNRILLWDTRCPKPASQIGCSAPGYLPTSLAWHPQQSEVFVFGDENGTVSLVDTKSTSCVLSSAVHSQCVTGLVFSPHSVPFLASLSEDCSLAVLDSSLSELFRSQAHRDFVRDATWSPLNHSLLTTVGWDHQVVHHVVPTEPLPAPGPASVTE
As to the kind of experiment: Thermal shift assay: change in melting temperature of the PRMT5/MEP50-MTA protein complex. The following applies: compound 8 µM, PRMT5/MEP50 2 µM, MTA 2 µM; Tm minus DMSO vehicle control. It is filed as binding. From the text:
Test Example 1: Determination of the ability of the compounds of the present invention to improve the thermal stability (melting temperature) of the PRMT5/MEP50-MTA protein complex.
1. Experimental objective: The objective of this test example is to determine the ability of the compound to improve the thermal stability of the PRMT5/MEP50-MTA protein complex, resulting in an increase in the protein melting temperature. 2. Experimental instruments: Quantitative PCR instrument (Quantstudio6 Flex) was purchased from Life Technologies; pipettes were purchased from Eppendorf or Rainin. 3. Experimental reagents and consumables: PRMT5/MEP50 protein was prepared by Viva Biotech; HEPES was purchased from Thermo Fisher Scientific (Cat. No. 15630080); DTT was purchased from Sigma (Cat. No. 43816-10ml); sodium chloride was purchased from Invitrogen (Cat. No. AM9760G); Protein Thermal Shift™ Dye Kit was purchased from Thermo Fisher Scientific (Cat. No. 4461146); methylthioadenosine (MTA) was purchased from Sigma (Cat. No. D5011). 4. Experimental methods: In this experiment, the thermal shift method was used to measure the change in the melting temperature (Tm) of the PRMT5/MEP50-MTA protein complex before and after compound binding, thereby characterising the ability of the compound to improve the thermal stability of the PRMT5/MEP50-MTA protein complex. A solution containing 50 mM HEPES, 10 mM DTT, 2 µM MTA, SYPRO Orange and 250 mM NaCl was prepared as the experimental buffer. Human PRMT5/MEP50 protein was added to a final concentration of 2 µM, and the mixture was incubated at room temperature for 30 minutes. The above reaction mixture was aliquoted into 8-strip PCR tubes at 19.5 µL per tube. Then 0.5 µL of test compound or DMSO was added to each tube, providing a total reaction volume of 20 µL and a final compound concentration of 8 µM. 2.5% DMSO was set as the vehicle control. After incubation at room temperature for 10 minutes, the PCR tubes were placed in a PCR instrument, and the melt curve function was selected to measure the melting temperature of the PRMT5/MEP50-MTA protein complex in different treatment groups (heated from 25°C to 95°C, 0.03°C/s). 5. Experimental data processing method: The experimental data files from the PCR instrument were imported into the thermal shift software to obtain the melting temperature (Tm) for each treatment group.
Broadly, the ΔTm is the shift of the melting midpoint relative to a reference. As to `CNN(C(=O)c1cc2c3c(c(N)nc2cc1F)COC3)C1COCc2nc(C(F)(F)F)ccc21` (racemic) [Example 306], the thermal shift (ΔTm) at 8 µM is 12.7 °C. In the case of `CNN(C(=O)c1cc2c(cn1)nc(N)c1cncn12)C1COc2cc(S(F)(F)(F)(F)F)ccc21` (racemic) [Example 385, 4-Amino-N'-methyl-N-(6-(pentafluoro-6-sulphanyl)-2,3-dihydrobenzofuran-3-yl)imidazo [1,5-a] pyrido [3,4-e] pyrazine-8-carbohydrazide], the ΔTm at 8 µM is 11.6 °C. Consider `CNN(C(=O)c1ccc2nc(N)c3cnn(C)c3c2c1)C1COc2cc(S(F)(F)(F)(F)F)ccc21` (racemic) [Example 450, 4-Amino-N',1-dimethyl-N-(6-(pentafluoro-6-sulphanyl)-2,3-dihydrobenzofuran-3-yl)-1H-pyrazolo[4,3-c]quinoline-8-carbohydrazide], for which the shift in melting temperature (ΔTm) at 8 µM is 12 °C. `[2H]C([2H])([2H])NN(C(=O)c1cc2c3c(c(N)nc2cc1C)COC3)C1COCc2c1ccn1c(C(F)(F)F)cnc21` (single isomer, unassigned) [Example 357-P1]: the “ΔTm (°C)” value turned out to be 12.45 °C. Take `CNN(C(=O)c1cc2c(cn1)nc(N)c1cncn12)C1COc2cc(S(F)(F)(F)(F)F)ccc21` (single isomer, unassigned) [Example 385-P1]: the ΔTm at 8 µM was 14 °C. Regarding `CNN(C(=O)c1cc2c(cn1)nc(N)c1cncn12)C1COc2cc(S(F)(F)(F)(F)F)ccc21` (single isomer, unassigned) [Example 385-P2], the “ΔTm (°C)” value worked out at 12.31 °C.

For the compound `CN(C(=O)c1ccc2nc(N)c3cnn(C)c3c2c1)[C@@H]1COCc2c1ccn1cc(Br)nc21` [Example 37-P1, (S)-4-amino-N-(2-bromo-7,10-dihydro-8H-imidazo[1,2-a]pyrano[3,4-c]pyridin-7-yl)-N,1-dimethyl-1H-pyrazolo[4,3-c]quinoline-8-carboxamide], the ΔTm at 8 µM was determined as 10.5 °C. With `Cc1cc2nc(N)c3cncn3c2cc1C(=O)N(C)C1COCc2c1ccn1cc(C(F)(F)F)nc21` (stereo not shown) [Example 39, 4-Amino-N,7-dimethyl-N-(2-(trifluoromethyl)-7,10-dihydro-8H-imidazo[1,2-a]pyrano[3,4-c]pyridin-7-yl)imidazo[1,5-a]quinoxaline-8-carboxamide], the ΔTm at 8 µM was 11.7 °C. As to `Cc1cc2nc(N)c3cncn3c2cc1C(=O)N(C)C1COCc2c1ccc1nc(C(F)(F)F)cn21` (stereo not shown) [Example 48, 4-Amino-N,7-dimethyl-N-(8-(trifluoromethyl)-3,4-dihydro-1H-imidazo[1,2-a]pyrano[4,3-e]pyridin-4-yl)imidazo[1,5-a]quinoxaline-8-carboxamide], the shift in melting temperature (ΔTm) at 8 µM is 11.7 °C. As to `CN(C(=O)c1ccc2nc(N)c3cnn(C)c3c2c1)C1COCc2c1ccc1cc(C(F)(F)F)cnc21` (stereo not shown) [Example 68, 4-Amino-N,1-dimethyl-N-(3-(trifluoromethyl)-7,10-dihydro-8H-pyrano[4,3-h]quinolin-7-yl)-1H-pyrazolo[4,3-c]quinoline-8-carboxamide], the shift in melting temperature (ΔTm) at 8 µM is 10.4 °C.

Take `CN(C(=O)c1ccc2nc(N)c3cnn(C)c3c2c1)C1COCc2c1ccc1nc(C(F)(F)F)cn21` (stereo not shown) [Example 81, 4-Amino-N,1-dimethyl-N-(8-(trifluoromethyl)-3,4-dihydro-1H-imidazo[1,2-a]pyrano[4,3-e]pyridin-4-yl)-1H-pyrazolo[4,3-c]quinoline-8-carboxamide]: the shift in melting temperature (ΔTm) at 8 µM is 10.4 °C. Still for that read-out and setting: then `Cc1cc2nc(N)c3cncn3c2cc1C(=O)N(C1CC(=C(F)F)C1)C1COCc2c1ccn1c(C(F)(F)F)cnc21` (stereo not shown) [Example 144, 4-Amino-N-[3-(difluoromethylene)cyclobutyl]-7-methyl-N-[5-(trifluoromethyl)-12-oxa-3,6-diazatricyclo[7.4.0.02,6]trideca-1(9),2,4,7-tetraen-10-yl]imidazo[1,5-a]quinoxaline-8-carboxamide], with 10.2 °C; and `Cc1cc2nc(N)c3cncn3c2cc1C(=O)N(C)C1COCc2c1ccn1c(N=S(C)(C)=O)cnc21` (stereo not shown) [Example 146, 4-Amino-N-(3-((dimethyl(carbonyl)-16-sulphanylidene)amino)-7,10-dihydro-8H-imidazo[1,2-a]pyrano[3,4-c]pyridin-7-yl)-N,7-dimethylimidazo[1,5-a]quinoxaline-8-carboxamide], with 10.2 °C; and `CN(C(=O)c1cc2c(cc1F)nc(N)c1cncn12)C1COCc2c1ccn1c(C(F)(F)F)c(C(=O)N3CC(=C(F)F)C3)nc21` (stereo not shown) [Example 234, 4-Amino-N-(2-(3-(difluoromethylene)azetidine-1-carbonyl)-3-(trifluoromethyl)-7,10-dihydro-8H-imidazo[1,2-a]pyrano[3,4-c]pyridin-7-yl)-7-fluoro-N-methylimidazo[1,5-a]quinoxaline-8-carboxamide], with 10.9 °C.

Turning to `CN(C(=O)c1cc2c(cc1F)nc(N)c1cncn12)C1COCc2c1ccn1c(C(F)=C3CCCCC3)cnc21` (stereo not shown) [Example 240, 4-Amino-N-(3-(cyclohexylidenefluoromethyl)-7,10-dihydro-8H-imidazo[1,2-a]pyrano[3,4-c]pyridin-7-yl)-7-fluoro-N-methylimidazo[1,5-a]quinoxaline-8-carboxamide], the shift in melting temperature (ΔTm) at 8 µM turned out to be 10.8 °C. Turning to `CNN(C(=O)c1cc2c(cc1C)nc(N)c1cncn12)C1COCc2nc(C(F)(F)F)ccc21` (stereo not shown) [Example 278, 4-Amino-N',7-dimethyl-N-(2-(trifluoromethyl)-5,8-dihydro-6H-pyrano[3,4-b]pyridin-5-yl)imidazo[1,5-a]quinoxaline-8-carbohydrazide], the ΔTm at 8 µM was 12.7 °C.

For the compound `CNN(C(=O)c1cc2c(cc1C)nc(N)c1cncn12)[C@@H]1COCc2nc(C(F)(F)F)ccc21` [Example 278-P1, (S)-4-amino-N',7-dimethyl-N-(2-(trifluoromethyl)-5,8-dihydro-6H-pyrano[3,4-b]pyridin-5-yl)imidazo[1,5-a]quinoxaline-8-carbohydrazide], the shift in melting temperature (ΔTm) at 8 µM is 12.6 °C. Take `Nc1nc2cc(F)c(C(=O)N(N)C3COCc4nc(C(F)(F)F)ccc43)cc2n2cncc12` (stereo not shown) [Example 280, 4-Amino-7-fluoro-N-(2-(trifluoromethyl)-5,8-dihydro-6H-pyrano[3,4-b]pyridin-5-yl)imidazo[1,5-a]quinoxaline-8-carbohydrazide]: the ΔTm at 8 µM was determined as 10.9 °C. Consider `CNN(C(=O)c1cc2c(cc1C)nc(N)c1cncn12)C1COCc2c1ccn1c(C(F)(F)F)cnc21` (stereo not shown) [Example 281, 4-Amino-N',7-dimethyl-N-(3-(trifluoromethyl)-7,10-dihydro-8H-imidazo[1,2-a]pyrano[3,4-c]pyridin-7-yl)imidazo[1,5-a]quinoxaline-8-carbohydrazide], for which the ΔTm at 8 µM turned out to be 12.7 °C. Consider `CNN(C(=O)c1cc2c3c(c(N)nc2cn1)COC3)C1COCc2nc(C(F)(F)F)ccc21` (stereo not shown) [Example 286, 4-Amino-N'-methyl-N-(2-trifluoromethyl-5,8-dihydro-6H-pyrano[3,4-b]pyridin-5-yl)-1,3-dihydrofuro[3,4-c] [1,7]naphthyridine-8-carbohydrazide], for which the ΔTm at 8 µM came to 10.5 °C. Consider `CNN(C(=O)c1cc2c3c(c(N)nc2cn1)COC3)C1COCc2cc(C(F)(F)F)ccc21` (stereo not shown) [Example 298, 4-Amino-N'-methyl-N-(7-(trifluoromethyl)isochroman-4-yl)-1,3-dihydrofuro[3,4-c][1,7]diazanaphthalene-8-carbohydrazide], for which the thermal shift (ΔTm) at 8 µM is 11.4 °C. Consider `[2H]C([2H])([2H])NN(C(=O)c1cc2c3c(c(N)nc2cn1)C(C)OC3)[C@@H]1COCc2nc(C(F)(F)F)ccc21` (stereo partly shown) [Example 322], for which the ΔTm at 8 µM amounted to 10.7 °C.

As for `[2H]C([2H])([2H])NN(C(=O)c1cc2c3c(c(N)nc2cn1)COC3)C1([2H])COCc2c1ccn1c(C(F)(F)F)cnc21` (stereo not shown) [Example 354, 4-Amino-N'-(methyl-d3)-N-(3-(trifluoromethyl)-7,10-dihydro-8H-imidazo[1,2-a]pyrano[3,4-c]pyridin-7-yl-7-d)-1,3-dihydrofuro[3,4-c][1,7]naphthyridine-8-carbohydrazide], the ΔTm at 8 µM is 10.8 °C.

Tested on in another series: not listed separately
As to the kind of experiment: Pharmacokinetics in rats (plasma) after oral administration. The following applies: male, SD, rat, 5 mg/kg.
Method: Test Example 4: Determination of the pharmacokinetics of the compounds of the present invention in rats (plasma) after oral administration.
Study objective: SD rats were used as test animals to study the pharmacokinetic behaviour of the following example compounds in rats (plasma) after oral administration at a dose of 5 mg/kg. […] Test scheme 2.1 Test drugs: Vehicle formula: 0.5% CMC-Na (1% Tween 80); the examples of the present invention, prepared in house. 2.2 Test animals: 3 SD rats per group, male, purchased from Shanghai Bikai Keyi Biotechnology Co., Ltd., with animal license number (SCXK (Shanghai) 2018-0006, No.20180006037467). 2.3 Administration: 3 SD rats per group, male, were fasted overnight and then respectively administered PO at a dose of 5 mg/kg and a volume of 10 mL/kg. 2.4 Sample collection: 0.2 mL of blood was collected from the jugular vein of rats before administration and at 0, 0.25, 0.5, 1, 2, 4, 6, 8 and 24 h after administration, and placed in EDTA-K2test tubes, and the test tubes were centrifuged at 6,000 rpm at 4°C for 6 min to separate the plasma, which was stored at -80°C. The animals were fed 4 h after administration. 2.5 Sample treatment • 1) 160 uL of acetonitrile was added to 40 uL of plasma sample for precipitation, and after mixing, the mixture was centrifuged at 3,500 × g for 5-20 minutes. • 2) 100 uL of the treated supernatant solution was taken for LC/MS/MS analysis to determine the concentration of the test compounds. 2.6 Liquid phase analysis • Liquid phase conditions: Shimadzu LC-20AD pump; • Mass spectrometry conditions: AB Sciex API 4000 mass spectrometer; • Chromatographic column: phenomenex Gemiu 5 um C18 50 × 4.6 mm; • Mobile phase: solution A: 0.1% formic acid in water, solution B: methanol; • flow rate: 1.0 mL/min; Elution time: 0-4.0 min, with eluents as follows:
Experimental results and analysis: The main pharmacokinetic parameters were calculated using WinNonlin 8.2.
The AUC(0-inf) is total exposure, with the tail of the curve extrapolated. The term Cmax denotes the highest concentration seen after dosing. In general, MRT inf refers to a mean duration of stay, worked out from the concentration-time curve. Usually Tmax stands for the time from dosing to the highest level. As a reminder, the half-life is the time needed for the level to fall by half in the phase considered. Lower therefore signals rapid decline. As to `Nc1nc2cnc(C(=O)N(N)C3COCc4c3ccn3c(C(F)(F)F)cnc43)cc2c2c1COC2` (stereo not shown) [Example 424, 4-Amino-N-(3-(trifluoromethyl)-7,10-dihydro-8H-imidazo[1,2-a]pyrano[3,4-c]pyridin-7-yl)-1,3-dihydrofuro[3,4-c][1,7]naphthyridine-8-carbohydrazide], the AUC(0-inf) stood at 2380 ng·h/mL, the concentration peaked (Cmax) at 226 ng/mL, the MRT inf amounted to 8.9 h and the Tmax amounted to 2.7 h. This compound also had a half-life of 6.1 h.
